# In patent US11034702B2, “Thienoisoquinolines and their derivatives for the treatment of cancer” (VALORBEC, SOCIÉTÉ EN COMMANDITE, priority 2016, dated 2021):
# How the values were obtained:
# HCT116 cells = assay: Mitotic spindle phenotype and centrosome fragment distance in HCT116 cells; type: cell-based
# Procedure: FIG. 2A) is a line graph showing the percentage of HCT116 (p53−/−) cells, A549 cells, HeLa cells and H1299 cells in mitosis after treatment with various concentrations of C75 for one population doubling time. All of the cell lines show an increase in the proportion of mitotic cells after treatment with 200 nM C75. The bars indicate standard deviation. […] While the mitotic spindles were not dramatically altered by C75 in HFF1 cells, they were monopolar (as shown) or fragmented in the other cell types. […] The mitotic spindles were more strongly fragmented after C75 treatment in these cells vs. the cells in FIG. 2B). […] While mitotic spindles recovered bipolarity after removing nocodazole, they remained multipolar after removing C75. FIG. 2F) is a series of time-lapse images of a live HeLa cell expressing GFP:tubulin after treatment with C75 as shown in 2D) and 2E). The scale bar for all cells is 10 μm. FIG. 2G) is a schematic showing the putative target for C75. Healthy cells have two centrosomes that separate and form a bipolar spindle, while cancer cells have aberrant centrosomes that cluster to form ‘pseudo’ bipolar spindles, and C75 may target this process and their integrity.
# FIG. 3A) is a line graph showing the percentage of mitotic HeLa or HFF1 cells treated with a range of paclitaxel (Taxol™; tubulin-targeting drug) concentrations+/−C75 as indicated. The bars indicate standard deviation. FIG. 3B) is a series of bar graphs showing the proportion of HCT116 cells that have monopolar spindles, bipolar spindles with aligned chromosomes, bipolar spindles with misaligned chromosomes and multipolar/fragmented spindles after treatments as shown. Treatments include DMSO (control), varying concentrations of paclitaxel and/or varying concentrations of C75 after 7 hours. While treatment of HCT116 cells with 2.5 nM paclitaxel caused a threshold of mitotic spindle phenotypes, adding increasing concentrations of C75 in combination with 2.5 nM paclitaxel caused the phenotypes to progressively worsen. FIG. 3C) is bar graph showing the average distance between centrosome fragments in HCT116 cells after treatments as shown. While centrosome fragments moved closer together with increased concentrations of paclitaxel, they moved further apart with increased concentrations of C75. […] FIG. 3E) is a line graph showing the percentage of mitotic HeLa or HFF1 cells treated with a range of nocodazole concentrations+/−C75 as indicated. The bars indicate standard deviation. […]
# C75 was also tested for efficacy in different cancer cell lines. […] To further assess the role of C75 in affecting centrosomes, HeLa cells were treated with C75 for a short period of time (5 minutes), then C75 was removed and the cells were analyzed for spindle phenotypes (schematic in FIG. 2D). […]
# HeLa spheroids = assay: HeLa multicellular tumour spheroids; type: cell-based, human
# Procedure: FIG. 5A) is a series of images of HeLa multicellular tumor spheroids (spheroids) treated with control (500 nM C87), empty nanoparticles, 500 nM C75 and 250 nM C75-loaded nanoparticles over 3 days. […] The scale bar for all images is 100 μm. FIG. 5B) is a series images of HeLa spheroids after three days of treatment with control (500 nM C87) or 500 nM C75. The spheroids were stained for fluorescein diacetate (to detect live cells) and propidium iodide (to detect dead cells). […] The scale bar for all images is 100 μm. FIG. 5C) is a series of images of HCT116 spheroids treated with control (1 μM C87), 500 nM C75, 1 μM C75 and 500 nM C75-loaded nanoparticles over 5 days. […] The borders of the spheroids treated with 1 μM C75 or with 500 nM C75-loaded nanoparticles became highly irregular, indicative of loss of spheroid integrity. FIG. 5D) is a series images of HCT116 spheroids after six days of treatment with control (1 μM C87) or 1 μM C75. The spheroids were stained for fluorescein diacetate (live cells) and propidium iodide (dead cells). […] FIG. 5E) is a line graph showing the growth in surface area (%) of HCT116 spheroids treated with control (1 μM C87), 500 nM C75 and 1 μM C75 after six days. FIG. 5F) is a series of images of A549 spheroids treated with control (750 nM C87), 500 nM C75, 1 μM C75 and 500 nM C75-loaded nanoparticles over 5 days. […] The scale bar for all images is 100 μm. […]
structure (smiles),measurement,setting,value
COc1ccc(S(=O)(=O)N2Cc3ccccc3-c3sc(Br)cc32)cc1 [Compound C75],mitotic spindle phenotype,"HCT116 cells; HCT116 (p53-/-), 300 nM, 6-8 hours",most of the spindles were severely fragmented
same,effect of C75 on phenotypes caused by paclitaxel,"HCT116 cells; HCT116, 2.5 nM paclitaxel + increasing C75, 7 hours",enhances the phenotypes
same,change of centrosome fragment distance when paclitaxel was combined with C75,"HCT116 cells; HCT116, paclitaxel + C75",significant increase in fragment distance
same,effect on HeLa spheroids,"HeLa spheroids; 500 nM C75 or 250 nM C75-loaded nanoparticles, over 3 days",disrupt HeLa spheroids
same,live/dead staining of spheroids (fluorescein diacetate / propidium iodide),"HeLa spheroids; HeLa spheroids, 500 nM, three days",majority of HeLa cells were dead
